Publication PMC6433685, “Histone deacetylase inhibitor LMK235 attenuates vascular constriction and aortic remodelling in hypertension” (Journal of Cellular and Molecular Medicine, 2019)

Assays:
[1] = test system: angiotensin II‐infusion mice; experiment: Aortic wall thickness (H&E) in angiotensin II-infusion mice; format: in vivo; settings: Ang II-infusion mice; 3 mg/kg/day for 1 week
Experimental: (§1) All animal procedures were approved by the Animal Experimental Committee of Chonnam National University Medical School (CNU IACUC‐H‐2014‐47) and carried out in accordance with the Guide for the Care and Use of Laboratory Animals (US National Institutes of Health Publications, 8th edition, 2011). CD‐1 mice (8 weeks old, 30‐35 g) were used in this study. Hypertension was induced by angiotensin II (Ang II, 1.3 mg/kg/day) infusion using 14‐day micro‐osmotic pumps (Alzet, model 1002; infusion rate of 0.25 μL/h) or saline alone. Ang II osmotic pumps were implanted subcutaneously after the injection of ketamine (120 mg/kg) and xylazine (6.2 mg/kg). One week after Ang II infusion, mice were administered LMK235 (1 or 3 mg/kg/day) or vehicle (dimethylsulphoxide [DMSO]) via intraperitoneal injection for 7 days. Mice were divided into three groups (n = 10‐12 per group): sham + vehicle, Ang II + vehicle, and Ang II + LMK235.
The paraffin‐embedded tissues were cut into 3‐μm‐thick sections, deparaffinized with xylene and then rehydrated with graded alcohol. Haematoxylin and eosin (H&E) staining was performed as described, with slight modifications.15 The arterial wall thickness was measured using NIS Elements Software (Nikon, Japan).

[2] = test system: spontaneously hypertensive rats (SHRs); experiment: Systolic BP (tail-cuff) in spontaneously hypertensive rats; format: in vivo
Experimental: For the essential hypertension animal experiment, SHRs were used. The SHR is the most used model animal model for hypertension and is generally regarded as an essential hypertension model.13 SHRs (6 weeks old, approximately 170 g) were purchased from Charles River (Yokohama, Japan). Rats were intraperitoneally administered LMK235 or vehicle every 3 days for 2 weeks (n = 4 per group).
Systolic BP was measured by the tail‐cuff method (Visitech Systems, BP‐2000). Animals (mice and rats) were trained to allow for the measuring of BP before administration of the drug. Animals were trained to enter the holder at the same time more than three times a week to measure BP. For angiotensin II‐mice, systolic BP was measured when the mice were awake the day before they are killed. For SHRs, systolic BP was measured daily for 2 weeks.

AT1 and ACE1 mRNA = AT1 and ACE1 mRNA (qRT-PCR) in aortas of angiotensin II-infusion mice; format: in vivo
Experimental: as §1
Total RNA from aortic tissue was isolated with TRIzol reagent (Invitrogen Life Technologies), and 1 μg of RNA was used for the reverse transcription reaction with TOPscript RT DryMIX (Enzynomics, South Korea). Quantification of mRNA levels was performed with the SYBR Green PCR kit (Enzynomics, South Korea).

HUVECs = experiment: Nitric oxide production in HUVECs (DAF-FM DA fluorescence); format: cell-based, Human; settings: 1 μmol/L, 24 h
Experimental: (§2) A10 vascular smooth muscle cells (VSMCs) were incubated with Dulbecco's modified Eagle medium (DMEM) with 4500 mg/L glucose containing 10% foetal bovine serum (FBS). Passages were carried out every 2 or 3 days. VSMCs were maintained in DMEM in the presence of 10% FBS with low glucose (1000 mg/L). Human umbilical vein endothelial cells (HUVECs) were obtained from Gibco (Waltham, MA, USA). HUVECs were grown in an endothelial cell basal medium (EBM) with EGM‐2 bullet kit (Lonza, Walkersville, MD) and maintained at 37°C under 5% CO2. Cells were cultured for 5‐7 passages.
We used a nitric oxide‐sensitive fluorescence probe, 4‐amino‐5‐methylamino‐2′,7′‐difluorescein diacetate (DAF‐FM DA, Cayman), for nitric oxide detection. HUVECs were seeded on coverslips in 12‐well plates (1.5 × 10^5/mL). Cells, serum‐starved with EBM for 16 hour, were treated with LMK235 (1 μmol/L) or L‐NAME (250 μmol/L) for 24 hour and incubated with DAF‐FM DA (2.5 μmol/L) for 45 minutes. Next, the cells were fixed with 70% ethanol for 45 minutes and mounted using Prolog Gold antifade reagent and DAPI (Invitrogen, USA).

HDAC1 = molecular target: T1, HDAC1 (Homo sapiens, UniProt Q13547); experiment: HDAC1 fluorogenic enzyme assay kit (BPS Bioscience), cell-free; format: biochemical; settings: 0.001-10 μmol/L inhibitor
T1 construct: purchased BPS Bioscience 50061
T1 sequence (Q13547 whole entry): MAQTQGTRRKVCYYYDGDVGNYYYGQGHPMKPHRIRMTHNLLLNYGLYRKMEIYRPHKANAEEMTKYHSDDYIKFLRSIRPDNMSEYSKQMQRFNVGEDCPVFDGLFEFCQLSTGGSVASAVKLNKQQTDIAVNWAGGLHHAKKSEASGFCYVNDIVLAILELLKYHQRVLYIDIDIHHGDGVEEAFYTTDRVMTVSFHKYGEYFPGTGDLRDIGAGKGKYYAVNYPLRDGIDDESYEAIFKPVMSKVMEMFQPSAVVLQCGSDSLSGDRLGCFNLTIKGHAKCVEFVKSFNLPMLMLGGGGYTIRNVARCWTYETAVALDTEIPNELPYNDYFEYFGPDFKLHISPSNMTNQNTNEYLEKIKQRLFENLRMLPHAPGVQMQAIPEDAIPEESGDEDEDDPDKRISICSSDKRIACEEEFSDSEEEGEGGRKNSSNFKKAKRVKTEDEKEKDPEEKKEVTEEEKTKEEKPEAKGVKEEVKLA

HDAC7 = molecular target: T2, HDAC7 (Homo sapiens, UniProt Q8WUI4); experiment: HDAC7 fluorogenic enzyme assay kit (BPS Bioscience), cell-free; format: biochemical; settings: 0.001-10 μmol/L inhibitor
T2 construct: purchased BPS Bioscience 50067
T2 sequence (Q8WUI4 whole entry): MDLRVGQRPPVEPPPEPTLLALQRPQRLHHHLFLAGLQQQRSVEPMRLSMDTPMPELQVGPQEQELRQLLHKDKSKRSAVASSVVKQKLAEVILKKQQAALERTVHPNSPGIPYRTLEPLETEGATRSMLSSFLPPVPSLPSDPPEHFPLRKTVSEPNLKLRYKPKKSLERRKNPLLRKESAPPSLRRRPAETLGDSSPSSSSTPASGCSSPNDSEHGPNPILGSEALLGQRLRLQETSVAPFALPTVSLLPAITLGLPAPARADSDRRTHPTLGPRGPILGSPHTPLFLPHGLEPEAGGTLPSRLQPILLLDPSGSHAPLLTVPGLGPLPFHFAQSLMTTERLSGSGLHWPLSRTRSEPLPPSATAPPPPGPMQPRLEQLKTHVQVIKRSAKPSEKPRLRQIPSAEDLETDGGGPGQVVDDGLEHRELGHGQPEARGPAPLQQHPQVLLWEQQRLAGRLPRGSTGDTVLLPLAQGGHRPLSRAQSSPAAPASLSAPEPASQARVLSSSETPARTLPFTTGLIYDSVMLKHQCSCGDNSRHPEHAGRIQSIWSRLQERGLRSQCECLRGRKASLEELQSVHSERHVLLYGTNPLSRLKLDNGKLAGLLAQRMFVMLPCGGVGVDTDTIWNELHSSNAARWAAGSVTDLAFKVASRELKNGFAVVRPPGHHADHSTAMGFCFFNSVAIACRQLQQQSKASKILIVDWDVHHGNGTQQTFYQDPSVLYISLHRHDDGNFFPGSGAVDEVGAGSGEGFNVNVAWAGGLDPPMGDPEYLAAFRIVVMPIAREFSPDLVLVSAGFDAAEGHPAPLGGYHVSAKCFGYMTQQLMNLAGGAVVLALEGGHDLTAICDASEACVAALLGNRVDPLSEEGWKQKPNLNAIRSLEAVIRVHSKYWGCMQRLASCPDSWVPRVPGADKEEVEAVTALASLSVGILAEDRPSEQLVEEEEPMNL

HDAC3 = molecular target: T3, HDAC3 (Homo sapiens, UniProt O15379); experiment: HDAC3 fluorogenic enzyme assay kit (BPS Bioscience), cell-free; format: biochemical; settings: 0.001-10 μmol/L inhibitor
T3 construct: purchased BPS Bioscience 50063
T3 sequence (O15379 whole entry): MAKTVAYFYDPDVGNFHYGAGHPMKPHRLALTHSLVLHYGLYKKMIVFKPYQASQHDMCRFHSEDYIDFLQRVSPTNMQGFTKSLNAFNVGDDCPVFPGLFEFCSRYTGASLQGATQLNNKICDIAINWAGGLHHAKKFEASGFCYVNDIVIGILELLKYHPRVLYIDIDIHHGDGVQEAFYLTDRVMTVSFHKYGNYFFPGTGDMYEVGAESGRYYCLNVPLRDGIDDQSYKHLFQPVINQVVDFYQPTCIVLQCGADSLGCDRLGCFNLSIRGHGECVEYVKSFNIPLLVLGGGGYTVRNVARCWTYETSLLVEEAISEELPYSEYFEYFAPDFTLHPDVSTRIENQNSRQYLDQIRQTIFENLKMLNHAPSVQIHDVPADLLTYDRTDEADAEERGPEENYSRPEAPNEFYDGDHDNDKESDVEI
T3 sequence (Q9Y618 395-489 partner limits assumed): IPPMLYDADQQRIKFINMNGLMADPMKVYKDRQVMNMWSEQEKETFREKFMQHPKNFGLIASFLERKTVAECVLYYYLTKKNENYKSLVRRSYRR

HDAC8 = molecular target: T4, HDAC8 (Homo sapiens, UniProt Q9BY41); experiment: HDAC8 fluorogenic enzyme assay kit (BPS Bioscience), cell-free; format: biochemical; settings: 0.001-10 μmol/L inhibitor
T4 construct: purchased BPS Bioscience 50068
T4 sequence (Q9BY41 whole entry): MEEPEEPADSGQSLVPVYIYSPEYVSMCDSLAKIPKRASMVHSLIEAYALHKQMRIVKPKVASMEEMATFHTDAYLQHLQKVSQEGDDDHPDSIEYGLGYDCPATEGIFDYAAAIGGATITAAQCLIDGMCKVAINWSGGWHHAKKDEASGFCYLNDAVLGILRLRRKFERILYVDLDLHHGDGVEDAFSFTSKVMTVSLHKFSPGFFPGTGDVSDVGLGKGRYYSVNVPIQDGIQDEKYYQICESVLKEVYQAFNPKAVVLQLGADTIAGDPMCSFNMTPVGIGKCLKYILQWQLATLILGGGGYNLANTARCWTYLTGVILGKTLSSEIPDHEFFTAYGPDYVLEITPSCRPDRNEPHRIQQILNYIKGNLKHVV

HDAC6 = molecular target: T5, HDAC6 (Homo sapiens, UniProt Q9UBN7); experiment: HDAC6 fluorogenic enzyme assay kit (BPS Bioscience), cell-free; format: biochemical; settings: 0.001-10 μmol/L inhibitor
T5 construct: purchased BPS Bioscience 50076
T5 sequence (Q9UBN7 whole entry): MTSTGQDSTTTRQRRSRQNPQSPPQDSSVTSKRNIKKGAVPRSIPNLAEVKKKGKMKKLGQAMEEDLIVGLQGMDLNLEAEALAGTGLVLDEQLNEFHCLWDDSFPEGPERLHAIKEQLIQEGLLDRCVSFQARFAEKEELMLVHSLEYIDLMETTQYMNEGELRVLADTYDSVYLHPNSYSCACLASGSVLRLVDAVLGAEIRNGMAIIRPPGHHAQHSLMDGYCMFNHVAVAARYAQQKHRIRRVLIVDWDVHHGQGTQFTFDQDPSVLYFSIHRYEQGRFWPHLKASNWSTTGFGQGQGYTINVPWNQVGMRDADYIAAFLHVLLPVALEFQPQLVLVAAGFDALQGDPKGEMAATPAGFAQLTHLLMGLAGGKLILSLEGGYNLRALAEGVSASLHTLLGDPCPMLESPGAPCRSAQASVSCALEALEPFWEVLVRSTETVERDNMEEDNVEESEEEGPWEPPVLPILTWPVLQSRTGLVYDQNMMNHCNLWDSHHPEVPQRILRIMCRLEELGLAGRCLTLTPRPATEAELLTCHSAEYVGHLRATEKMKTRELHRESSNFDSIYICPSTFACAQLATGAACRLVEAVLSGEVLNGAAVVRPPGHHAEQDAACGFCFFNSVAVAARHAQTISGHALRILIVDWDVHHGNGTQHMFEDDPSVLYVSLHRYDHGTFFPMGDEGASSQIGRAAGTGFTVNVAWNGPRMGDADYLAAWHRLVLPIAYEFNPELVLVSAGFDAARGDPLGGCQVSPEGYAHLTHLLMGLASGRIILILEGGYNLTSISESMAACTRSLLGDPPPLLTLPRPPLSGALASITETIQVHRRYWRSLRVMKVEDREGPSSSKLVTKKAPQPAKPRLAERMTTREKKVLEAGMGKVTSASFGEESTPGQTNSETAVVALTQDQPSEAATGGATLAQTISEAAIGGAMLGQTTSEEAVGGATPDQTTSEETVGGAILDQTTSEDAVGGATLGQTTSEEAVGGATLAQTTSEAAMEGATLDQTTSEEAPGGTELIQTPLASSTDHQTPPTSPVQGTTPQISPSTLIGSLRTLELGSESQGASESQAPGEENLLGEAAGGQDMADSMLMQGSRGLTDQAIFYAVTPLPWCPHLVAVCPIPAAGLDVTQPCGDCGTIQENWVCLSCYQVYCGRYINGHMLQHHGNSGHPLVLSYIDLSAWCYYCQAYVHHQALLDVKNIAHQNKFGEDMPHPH

HDAC9 = molecular target: T6, HDAC9 (Homo sapiens, UniProt Q9UKV0); experiment: HDAC9 fluorogenic enzyme assay kit (BPS Bioscience), cell-free; format: biochemical; settings: 0.001-10 μmol/L inhibitor
T6 construct: purchased BPS Bioscience 50069
T6 sequence (Q9UKV0 whole entry): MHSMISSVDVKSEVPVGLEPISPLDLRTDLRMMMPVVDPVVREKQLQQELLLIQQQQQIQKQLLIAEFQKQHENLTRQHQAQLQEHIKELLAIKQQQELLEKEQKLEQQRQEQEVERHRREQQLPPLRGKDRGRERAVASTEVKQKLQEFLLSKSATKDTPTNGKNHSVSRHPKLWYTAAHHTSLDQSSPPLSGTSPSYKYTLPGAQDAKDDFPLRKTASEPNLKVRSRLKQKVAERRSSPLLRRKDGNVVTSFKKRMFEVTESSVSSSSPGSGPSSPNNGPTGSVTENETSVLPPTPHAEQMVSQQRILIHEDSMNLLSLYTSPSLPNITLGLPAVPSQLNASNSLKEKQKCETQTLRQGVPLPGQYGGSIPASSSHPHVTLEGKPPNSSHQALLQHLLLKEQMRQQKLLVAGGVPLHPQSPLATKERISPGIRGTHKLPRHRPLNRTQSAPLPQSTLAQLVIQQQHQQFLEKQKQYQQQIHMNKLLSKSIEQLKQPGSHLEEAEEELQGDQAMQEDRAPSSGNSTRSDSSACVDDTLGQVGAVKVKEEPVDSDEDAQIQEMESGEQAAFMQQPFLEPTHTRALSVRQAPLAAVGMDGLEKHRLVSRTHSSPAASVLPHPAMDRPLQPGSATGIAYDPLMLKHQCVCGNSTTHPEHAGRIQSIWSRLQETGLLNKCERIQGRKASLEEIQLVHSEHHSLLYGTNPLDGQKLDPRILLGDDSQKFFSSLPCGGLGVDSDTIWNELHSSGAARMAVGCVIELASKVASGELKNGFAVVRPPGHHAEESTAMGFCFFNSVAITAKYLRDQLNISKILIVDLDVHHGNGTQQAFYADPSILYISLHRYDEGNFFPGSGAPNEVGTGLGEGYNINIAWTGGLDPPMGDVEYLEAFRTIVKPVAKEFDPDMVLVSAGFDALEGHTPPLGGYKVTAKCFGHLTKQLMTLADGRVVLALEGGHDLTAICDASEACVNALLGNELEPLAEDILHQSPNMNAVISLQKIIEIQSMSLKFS

A10 cells = experiment: MTT cell viability assay in A10 cells; format: cell-based, rat; settings: up to 1000 nmol/L, 24 hours
Experimental: as §2
Cell viability was tested by the MTT [3‐(4,5‐dimethylthiazol‐2‐yl)‐2,5‐diphenyl tetrazolium bromide] assay. A10 cells were seed into 24‐well culture dishes and serum‐starved overnight. Cells were treated with LMK235 or vehicle for 24 hours at the indicated concentrations. MTT reagent was added to the medium for 2 hours and then dissolved in DMSO, and the absorbance was measured at 570 nm. For assessing cell proliferation, A10 cells were transfected with pCMV‐SPORT6‐CaMKIIα in a dose‐dependent manner. The MTT assay was performed as described above.

Cc1cc(C)cc(C(=O)NOCCCCCC(=O)NO)c1 [LMK235]
aortic wall thickness [1]: completely inhibited the increased aortic wall thickness
hypertension lowering effect ([2]; 1 mg/kg/day (data not shown)): did not exhibit a hypertension lowering effect
duration of BP lowering effect ([2]; 3 mg/kg i.p. every 3 days): 2 days
systolic BP ([2]; 3 mg/kg i.p. every 3 days, 2 days after treatment): significantly lowered
systolic BP ([2]; 3 mg/kg i.p. every 3 days, 3 days after administration): restored to a comparable level
AT1 transcript levels in aorta (AT1 and ACE1 mRNA; Ang II-infusion mice): not reduced
aortic ACE1 or AT1 expression (AT1 and ACE1 mRNA; either hypertension model (Ang II mice and SHRs)): did not affect
nitric oxide production (HUVECs): increased nitric oxide production
IC50 (HDAC1): 30 nM
IC50 (HDAC7): > 20000 nM
IC50 (HDAC3): 37 nM
IC50 (HDAC8): 1120 nM
IC50 (HDAC6): 50 nM
IC50 (HDAC9): > 20000 nM
cell viability (MTT) (A10 cells): not affected
